Assay results as given in patent US12458602B2, “Realizing the nano-amorphous state of materials inside nano-porous templates” (The Chinese University of Hong Kong, priority 2021, dated 2025).

Assay: In-vitro dissolution test in deionized water
Assay type: physicochemical
Settings: room temperature
Method: The total drug dose is about 50 mg dissolved in 1 L of deionized water at the room temperature. In order to obtain the concentration versus time plot, a series of samples (3 mL) are withdrawn at predetermined time points, and the same amount of fresh media is added back to maintain a constant volume (1 L). These withdrawn samples are filtered by 0.22 μm MCE filters, and their concentrations are then determined with a UV spectrophotometer.

SMILES	drug released in 6 hours [%]
CC(C(=O)O)c1ccc(-c2ccccc2)c(F)c1 (centres unmarked) [Flurbiprofen crystal, Flurbiprofen]	9.5
CCC(COC(=O)c1cc(OC)c(OC)c(OC)c1)(c1ccccc1)N(C)C (centres unmarked) [Trimebutine crystal, Trimebutine]	1.18
